Measurements published in patent US9284595B2 (priority 2012, dated 2016).

How the values were obtained:
BoNT/A-LC [1] = molecular target: T1, BoNT/A-LC (Clostridium botulinum, UniProt P0DPI0); assay type: biochemical
BoNT/A Holotoxin = BoNT/A Holotoxin (Clostridium botulinum, UniProt P0DPI0); assay type: biochemical
[2] = molecular target: heat inactivated BoNT/A-LC (Clostridium botulinum, UniProt P0DPI0)
BoNT/A Toxoid = BoNT/A Toxoid (Clostridium botulinum, UniProt P0DPI0)
BoNT/A-LC [3] = molecular target: T1, BoNT/A-LC; assay type: biochemical; remark: listed apart in the source

T1 sequence (P0DPI0 2-448 limits assumed): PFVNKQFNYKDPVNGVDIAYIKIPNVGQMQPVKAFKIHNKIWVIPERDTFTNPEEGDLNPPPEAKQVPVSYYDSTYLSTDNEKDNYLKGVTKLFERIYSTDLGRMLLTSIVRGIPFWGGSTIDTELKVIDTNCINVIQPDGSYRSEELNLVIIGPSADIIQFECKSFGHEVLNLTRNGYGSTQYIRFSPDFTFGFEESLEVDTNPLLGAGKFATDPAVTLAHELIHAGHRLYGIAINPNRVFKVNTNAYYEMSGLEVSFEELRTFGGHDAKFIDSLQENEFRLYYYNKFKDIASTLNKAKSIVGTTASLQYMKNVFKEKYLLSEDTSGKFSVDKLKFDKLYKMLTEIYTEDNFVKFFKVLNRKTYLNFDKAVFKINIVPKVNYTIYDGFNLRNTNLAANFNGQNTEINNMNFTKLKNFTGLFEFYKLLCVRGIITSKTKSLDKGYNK
BoNT/A Toxoid, sequence (P0DPI0 2-448 limits assumed): as above
heat inactivated BoNT/A-LC, sequence (P0DPI0 2-448 limits assumed): as above
BoNT/A Holotoxin, sequence (P0DPI0 2-448 limits assumed): as above

`O=C(O)CCP(CCC(=O)O)CCC(=O)O` [TCEP, tris(2-carboxyethyl)phosphine, reference compound] was tested, and the “performance of reducing agent in BoNT/A-LC assay” value (BoNT/A-LC [1]) was “performed better than samples with DTT (and zinc), and even better than samples containing no reducing agent” and the “performance of TCEP concentration in BoNT/A Holotoxin assay” value (BoNT/A Holotoxin) was “samples with 1.0 mM TCEP performed better than samples with 2.0 mM TCEP”.
With “(KDabcyl)TRIDEANQRATKML(K5Fam) [SEQ. ID NO. 6]” the “detection of BoNT/A-LC activity” value (BoNT/A-LC [1]) was “incapable of detecting BoNT/A-LC activity”.
With “MDENLEQVSGIIGNLRHMALDMGNEIDTQNRQIDRIMEKADSN(KDabcyl)TRIDEANQRATKML(K5Fam) [SEQ. ID NO. 1]” the “detection of BoNT/A-LC activity” value (BoNT/A-LC [1]) was “able to detect BoNT/A-LC”, the “detection of BoNT/A-LC activity in the presence of common PCR inhibitors” value (BoNT/A-LC [1]) was “can detect BoNT/A-LC activity in the presence of common PCR inhibitors” and the “detection of biologically active BoNT/A-LC” value (BoNT/A-LC [1]) was “able to detect biologically active BoNT/A-LC”. For the same compound, the “fluorescence response to BoNT/A-LC” value (BoNT/A-LC [1]) was “able to detect biologically active BoNT/A-LC”, the “increase in fluorescence overtime compared to SNAPtide” value (BoNT/A-LC [1]) was “greater increase in fluorescence overtime” and the “limit of detection of BoNT/A-LC” value (BoNT/A-LC [1]) was “at least 0.04 ng”. For the same compound, the “detection of heat inactivated BoNT/A-LC” value [2] was “not heat inactivated BoNT/A-LC, even when present at high concentrations” and the “detection of BoNT/A Toxoid” value (BoNT/A Toxoid) was “not BoNT/A Toxoid, even when present at high concentrations”.
For `O[C@H](CS)[C@H](O)CS` (racemic) [DTT, Dithiothreitol], the “effect on BoNT/A-LC activity” value (BoNT/A-LC [3]) was “reduced BoNT/A-LC activity”.
